What all share (assay type): physicochemical
Data set [1] in a line: Solubilization enhancement with PVP K-30 and citric acid (Preparation C). On the procedure:
Approximately 1.0, 1.5, 1.6, 2.5 and 3.0 grams of amorphous paroxetine HCl were weighed into five 25-ml volumetric flasks. Ten milliliters of an ethanol-water (20% v/v ethanol) mixture containing 0.25 grams of polyvinyl pyrrolidone (PVP) K-30 and 0.02 grams of citric acid anhydrous were added into each of the five flasks and the flasks were sonicated for 30 minutes. Only the solution in flask 1 became clear while only part of the paroxetine HCl in flasks 2 through 5 dissolved.

A short description of data set [2]: Solubility in aqueous alcohol (Preparation B). On the procedure:
A. Exactly two milliliters of ethanol were added to each of the nine flasks from Preparation A and the flasks shaken gently by hand. […] B. Approximately 250, 320, 400, 570 and 1120 mg of amorphous paroxetine HCl were weighed into five 25-ml volumetric flasks labeled 1 through 5 respectively. Ten milliliters of ethanol-water mixture containing 20% v/v ethanol were pipetted into each of the flasks and the flasks were stoppered. The flasks were then placed in a sonicator (Branson 1210, Danbury, Conn.) and sonicated for ten minutes taking care to see that there was no heating.

Data set [3] can be described thus: Determination of solubility in deionized water (Preparation A). The following applies: room temperature, sonicated 10 min, still clear after 24 hours. The procedure: Approximately 45, 100, 200, 300, 400, 500, 510, 750 and 1000 mg of amorphous paroxetine HCl were weighed into nine 25-ml volumetric flasks labeled 1 through 9 respectively. Ten milliliters of deionized water were pipetted into each of the flasks and the flasks were stoppered. The flasks were then placed in a sonicator (Branson 1210, Danbury, Conn.) and sonicated for ten minutes taking care to see that there was no heating.

As a reminder, the solubility is the dissolved amount per volume that the medium holds.

Structures can show the parent of a compound that is named as a salt.

`Fc1ccc([C@@H]2CCNC[C@H]2COc2ccc3c(c2)OCO3)cc1` [Paroxetine HCl]: in data set [1] (60 °C, aqueous with cosolvent or surfactant or cyclodextrin, thermodynamic from solid), the solubility at 30 min is more than 300 mg/mL.

Take `Cl.Fc1ccc([C@@H]2CCNC[C@H]2COc2ccc3c(c2)OCO3)cc1` [amorphous paroxetine HCl]: the appearance of solution result in data set [2] (1120 mg in 10 ml ethanol-water 20% v/v ethanol, sonicated 10 min (flask 5)) is “clear solution with a slight precipitate”; in data set [2] (250, 320, 400, 570 mg in 10 ml ethanol-water 20% v/v ethanol, sonicated 10 min (flasks 1-4)) it was “clear solutions”; in data set [1] (1.0 g in 10 ml 20% v/v ethanol with 0.25 g PVP K-30 and 0.02 g citric acid, sonicated 30 min (flask 1)), “became clear”. For the same compound, the “amount that could be dissolved in hydroalcoholic solvent mixture” value in data set [2] (about 15% ethanol (10 ml water + 2 ml ethanol)) is on record as “at least 1 gram”. The “appearance of solution upon heating” value in data set [1] (1.0-3.0 g in 10 ml 20% v/v ethanol with 0.25 g PVP K-30 and 0.02 g citric acid, heated to about 60° C.) is listed as “all the solutions became clear”. Further, the extent of dissolution entry in data set [1] (1.5, 1.6, 2.5, 3.0 g in 10 ml 20% v/v ethanol with 0.25 g PVP K-30 and 0.02 g citric acid, sonicated 30 min (flasks 2-5)) is reported as “only part”. Moreover, the results for the maximum solubility result in data set [3] (HCl) and in data set [3] (listed as amorphous form of paroxetine HCl) were “about 75 mg/ml” and “up to 75 mg/ml”, respectively.

The record behind these values is US6660298B1, “Paroxetine tablets and capsules” (priority 2000, dated 2003).
